Four substances from patent US20220380763A1, “NUCLEIC ACID DELIVERY ENHANCER” (NATIONAL UNIVERSITY CORPORATION KOCHI UNIVERSITY, priority 2019, published 2022) can be followed below.

For one data set, the system named is S2-013 cells. In words: Matrigel invasion assay. Type of data set: cell-based, human. The settings on record: unmodified siRNA added with folic acid-cationic oligopeptide complex (Fol-Dab8A and Fol-Dab8B); versus control siRNA, P<0.05. The procedure: Each of the scrambled control siRNA, SNORA18 siRNA, NUP85 siRNA, WASF2 siRNA, and SNORA22 siRNA (all used in Example 5) with the folic acid-cationic oligopeptide complex added was added to the culture solution of S2-013 cells, and Matrigel invasion assay was performed after 48 hours.
4.0×10^4 cells were suspended in a serum-free medium and seeded in the upper chamber of a Matrigel Invasion Chamber (24-well plate, pore size: 8 μm, manufactured by Becton, Dickinson, and Company). A solvent containing 5% fetal bovine serum was added to the lower chamber. After the cells were incubated in the upper chamber for 20 hours, three independent areas were observed under a microscope, and the cells invading the lower chamber were counted. The same experiment was repeated three times, and the cell invasion ability of 52-013 cells into which each siRNA was taken up was compared.
The “*” denotes a significant difference at P<0.05 as compared to the control in the t-test.
Each of the scrambled control siRNA (SEQ ID NOs: 3 and 4), SNORA18 siRNA (SEQ ID NOs: 21 and 22), NUP85 siRNA (SEQ ID NOs: 23 and 24), WASF2 siRNA (SEQ ID NOs: 25 and 26), and SNORA22 siRNA (SEQ ID NOs: 27 and 28) was added with 2 equivalents of Dab8, Fol-Dab8A, or Fol-Dab8B to the culture solution of pancreatic cancer cell line S2-013 in culture. As a control, each of the control siRNA, SNORA18 siRNA, NUP85 siRNA, WASF2 siRNA, and SNORA22 siRNA was added alone to the culture solution of the S2-013 cells.
After 48 hours of culture, the Matrigel invasion assay was performed. In the Matrigel invasion assay, the number of cells that have migrated from the upper chamber to the lower chamber is shown. The “*” denotes a significant difference at P<0.05 as compared to the control in the t-test.

In data set [1] the test system is S2-013 pancreatic cancer cells. The data set is described as follows: Lysosome (LysoTracker) and siRNA staining, confocal microscopy. The data set is classed as cell-based, human. Particulars: chemically-modified Alexa488-labeled siRNA with Fol-Dab8A or Fol-Dab8B, 2 equivalents, overnight.

For the substance “NUP85 siRNA: double-stranded siRNA against NUP85, SEQ ID NOs: 7 and 8 (Table 2) (chain 1 CAGCGGCAGAUGACUGAACAA; chain 2 UUGUUCAGUCAUCUGCCGCUG; listed as RNA, chemistry not given here)”, the cell invasion entry with S2-013 cells is given as “significantly suppressed”.

Consider “SNORA18 siRNA: double-stranded siRNA against SNORA18, SEQ ID NOs: 5 and 6 (Table 2) (chain 1 UUUACUUUACUCACAGGACUA; chain 2 UAGUCCUGUGAGUAAAGUAAA; listed as RNA, chemistry not given here)”, for which the cell invasion entry with S2-013 cells is recorded as “significantly suppressed”. With “SNORA22 siRNA: double-stranded siRNA against SNORA22, SEQ ID NOs: 11 and 12 (Table 2) (chain 1 CUUGGCUUUGACCCUGUGCUA; chain 2 UAGCACAGGGUCAAAGCCAAG; chemistry not given here)”, in the data set on S2-013 cells, the cell invasion entry was “significantly suppressed”. The “intracellular localization of siRNA” value in data set [1] is listed as “localized in lysosomes”. Regarding “WASF2 siRNA: double-stranded siRNA against WASF2, SEQ ID NOs: 9 and 10 (Table 2) (chain 1 UAGGAUUAGAUCAUUAGCUCA; chain 2 UGAGCUAAUGAUCUAAUCCUA; listed as RNA, chemistry not given here)”, the cell invasion result in the data set with S2-013 cells is given as “significantly suppressed”.
